From patent US20250339569A1, “CARBONIC ANHYDRASE IX LIGANDS” (priority 2021, published 2025)

Columns and labels:
[1] = Biodistribution study in healthy dog (SPECT/CT, blood pharmacokinetics, urine excretion); conditions: in vivo
mouse CAIX = molecular target: T1, mouse CAIX (Mus musculus, UniProt Q8VHB5); test: Radioligand saturation binding on CHO-msCAIX
T1 construct: host or cells: CHO-VGT / CHO cells
Procedure: (§1) After attainment of equilibrium, the cells were harvested, and the bound fraction of the compounds was measured. The resulting saturation binding data were analyzed using Graph Pad Prism 8.3.
(§2) CHO cells transfected with human, dog, and mouse CAIX (CHO-huCA9 T04J-1/20 K1, CHO-dogCA9 T05J-9/20 K4, CHO-murCA9 T05J-3/20 K4) were obtained from InSCREENex (Germany).
(§3) A molar excess of 3BP-3565 was used as a blocking peptide to assess non-specific binding in autoradiographic studies. 3BP-3565 binds with a similar affinity to CAIX and blocks binding sites of test compounds. For the blocking solution, a 10 mM stock solution of 3BP-3565 was prepared by dissolution in DMSO.
(§4) CHO cells were maintained in Ham's medium supplemented with 10% fetal bovine serum, 2 mM L-glutamine, 100 U/mL Penicillin and 0.1 mg/mL streptomycin under standard cell culture conditions. The cells were grown in uncoated cell culture flasks (150 cm^2, Biochrom) to subconfluence and then split 1:2-1:3. Approximately 24 hours before the assay, cells were detached by incubation with Accutase and carefully tapping the flasks. Detached cells were resuspended in medium and collected by centrifugation (300 g, 5 min, RT). Cell pellets were resuspended in cell culture medium and counted using a particle counter (CASY Model TT, Scharfe Systems, Germany). Cell concentrations were adjusted to 3×10^5 mL^−1, and 1.000 μL per well of the suspension were dispensed into poly-D-lysine-coated flat-clear-bottom 24 well plates.
(§5) Compound radiolabeling was performed as follows. […] Then, 25 mg/mL methionine in 1 M sodium acetate buffer pH 5 was added at a final concentration of 0.1 M sodium acetate. Subsequently, the mixture was heated to 80° C. for 25 min, followed by cooling for 5 minutes. Finally, 20 μL of 200 mg/mL ascorbic acid solution, 2.5 μL of 5 mg/mL DTPA and 2.5 μL of 5% TWEEN-20 per 100 μL reaction mixture were added, resulting in the concentrated study solution. For quality control, an aliquot of the labeling solution was diluted 1:40 with 0.1% TWEEN-20 in 0.1 M sodium acetate buffer pH 5. Five microliters of the diluted labeling solution were injected onto a Poroshell SB-C18 2.1×50 mm, 2.7 μm column. HPLC analysis was performed as follows: Gradient A: H2O, 0.1% TFA, Gradient B: Acetonitrile (MeCN), gradient from 5% B to 70% B within 15 min, flow rate of 0.5 mL/min; detector: NaI, DAD 215 nm. The peak eluting with the dead volume represents free radionuclide, the peak eluting with the ligand-specific retention time as determined with a non-labeled sample represents the radiolabeled compound.
The radioligand saturation binding on CHO-msCAIX was determined as follows. […] Their associated radioactivity was counted using a gamma counter and normalized to the measured protein concentration of each well. […]

human CAIX = human CAIX (Homo sapiens, UniProt Q16790); test: Radioligand saturation binding and equilibration on CHO-huCAIX; design: host or cells: CHO-VGT / CHO cells
Procedure: as §1, §2, §3, §4, §5
The assessment of the time needed until attainment of equilibration on CHO-huCAIX and CHO-dgCAIX was performed as follows. The 10 mM 3BP-3565 stock solution was diluted with assay medium (Ham's medium without additives) to prepare an 8-μM blocking working solution. The radiolabeling mixtures were diluted with assay medium to prepare 160 nM radioligand working solutions. Subsequently, 1.6 and 3.2 nM radioligand dilutions were prepared by diluting the radioligand working solutions 1:100 and 1:50, respectively, with assay medium. Approximately 24 hours after re-seeding (3×10^5 mL^−1 cells per well), the medium was aspirated, and the cells were washed once with assay medium (700 μL). To determine total binding, 700 μL of binding medium and 100 μL of the radioligand dilutions were added to the wells in triplicates.
To determine non-specific binding, 600 μL of binding medium, 100 μL of the […] 3BP-3565 blocking solution and 100 μL of the radioligand dilutions were added to the wells in triplicates. The plates were incubated for 1 h, 3 h, 6 h, and 8 h at 37° C. under standard cell culture conditions (5% CO2). At the end of the incubation time, the plates were placed on ice while aspirating the radioligand solutions. Subsequently, the cells were washed with ice-cold PBS (0.5 mL, 1 mL, 1 mL). […]

T1 sequence (Q8VHB5 32-437): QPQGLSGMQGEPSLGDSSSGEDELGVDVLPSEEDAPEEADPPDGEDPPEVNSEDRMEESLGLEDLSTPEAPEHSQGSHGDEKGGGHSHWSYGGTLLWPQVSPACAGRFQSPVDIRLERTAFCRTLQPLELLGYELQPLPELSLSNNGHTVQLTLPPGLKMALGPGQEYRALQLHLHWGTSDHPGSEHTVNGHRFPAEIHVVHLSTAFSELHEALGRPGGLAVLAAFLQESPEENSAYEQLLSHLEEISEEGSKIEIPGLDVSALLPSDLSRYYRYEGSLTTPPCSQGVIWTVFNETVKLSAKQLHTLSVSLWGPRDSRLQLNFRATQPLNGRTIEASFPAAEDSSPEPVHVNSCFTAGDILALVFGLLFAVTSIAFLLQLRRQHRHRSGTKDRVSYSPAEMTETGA

CC(C)C[C@@H]1NC(=O)[C@H](Cc2cccc(NC(=O)CCCS(N)(=O)=O)c2)NC(=O)[C@H](CC(=O)O)NC(=O)[C@H]2CCCN2C(=O)[C@H](CCC(=O)O)NC(=O)[C@@H](NC(=O)[C@H](CCC(N)=O)NC(=O)CN2CCN(C(=O)CN3CCN(CC(=O)O)CCN(CC(=O)O)CCN(CC(=O)O)CC3)CC2)CSCc2cccc(c2)CSC[C@@H](C(N)=O)NC(=O)[C@H](CO)NC(=O)[C@H](Cc2c[nH]c3ccccc23)NC(=O)[C@H]([C@@H](C)O)NC1=O [[^111In]In-DPI-4452, metal not drawn]
half-life [1]: 55.6 min
half-life ([1]; iv): 5.43 min
Kd (mouse CAIX): 63.1 nM
Mean pKd ± SD (mouse CAIX; CHO-msCAIX, single experiment): 7.2
Kd (human CAIX; Mean pKd ± SD, CHO-huCAIX): 0.316 nM
Kd (human CAIX; pKd, CHO-huCAIX, first independent experiment): 0.2 nM
Kd (human CAIX; pKd, CHO-huCAIX, second independent experiment): 0.501 nM
Kd (human CAIX; pKd, human CAIX expressed in CHO cells, 8 h at 37°C): ≤ 1 nM
